{
  "source": "patent US20240252497A1",
  "about": "“USE OF COMPLEMENT FACTOR D INHIBITOR FOR TREATMENT OF GEOGRAPHIC ATROPHY SECONDARY TO AGE-RELATED MACULAR DEGENERATION” (Alexion Pharmaceuticals, Inc., priority 2021, published 2024)",
  "key": {"[1]": {"assay": "Ocular distribution of Compound 1 after oral administration", "assay_type": "in vivo", "source_text": "As an orally administered small molecule, Compound 1 is advantageous over therapeutic agents being investigated for the use in treating GA, which rely in intravitreal administration. In this regard, oral CFD inhibitors, such as Compound 1, not only provide GA patients with a more convenient and accessible option for therapy, but also help reduce the patient and caregiver burden for by lowering the need for clinical visits and minimize the risk of ocular injection-related adverse events. […] Given the overall pharmaceutical profile of Compound 1, the present disclosure provides that a treatment regimen with Compound 1 leads to better patient compliance and improved clinical outcomes in patients with GA."}, "[2]": {"assay": "MAD study (tolerability, liver enzymes)", "assay_type": "in vivo, human", "details": "high doses, after dosing was ceased", "description": "The 100 mg BID, 200 mg BID, and 400 mg QD dose regimens proposed for this study are based on simulation results. […] Based on data from the literature, retina and choroid RPE on the retinal side are more likely to be the target eye tissues. However, the choroid RPE on the capillary bed side cannot be completely ruled out as a potential target. The proposed doses allow for the assessment of two different dosing intervals, i.e., BID vs QD. The 400 mg QD dosing regimen, if shown to be safe and effective, would be more convenient for patients and encourage better compliance relative to bid dosing. An up to 2-fold uncertainty of model prediction on PK and APH inhibition in the target eye tissues is anticipated as the physiological eye parameters in humans were translated from Dutch-Belted rabbits. […] The elevations were transient and not considered of clinical significance. […] A dose taper was instituted in subsequent studies as a risk mitigation measure."}},
  "data": [
    {"smiles": "CC(=O)c1nn(CC(=O)N2C[C@H](F)C[C@H]2C(=O)Nc2cccc(Br)n2)c2ccc(-c3cnc(C)nc3)cc12", "note": "[Compound 1, (2S,4R)-1-(2-(3-acetyl-5-(2-methylpyrimidin-5-yl)-1H-indazol-1-yl)acetyl)-N-(6-bromopyridin-2-yl)-4-fluoropyrrolidine-2-carboxamide]", "values": [
      {"measurement": "blood-retina barrier crossing", "setting": "[1]", "value": "cross the blood-retina barrier"},
      {"measurement": "retention in ocular tissues after oral administration", "setting": "[1]; choroid and retinal pigment epithelium (RPE)", "value": "selective retention in ocular tissues containing melanin"},
      {"measurement": "ALT elevations", "setting": "[2]", "value": "ALT elevations were observed at high doses in 2 subjects after dosing was ceased"}
    ]}
  ]
}
